This is an account of results in ChEMBL document CHEMBL4814005, “Pragmatic recruitment of memantine as the capping group for the design of HDAC inhibitors: A preliminary attempt to unravel the enigma of glioblastoma” (Eur J Med Chem, 2021).

Activity calls are given as the source filed them. No cut-off for these calls is given here.

For experiment [1], the target named is T1, Protein deacetylase HDAC6 (Homo sapiens, UniProt Q9UBN7).
T1 sequence (Q9UBN7 whole entry): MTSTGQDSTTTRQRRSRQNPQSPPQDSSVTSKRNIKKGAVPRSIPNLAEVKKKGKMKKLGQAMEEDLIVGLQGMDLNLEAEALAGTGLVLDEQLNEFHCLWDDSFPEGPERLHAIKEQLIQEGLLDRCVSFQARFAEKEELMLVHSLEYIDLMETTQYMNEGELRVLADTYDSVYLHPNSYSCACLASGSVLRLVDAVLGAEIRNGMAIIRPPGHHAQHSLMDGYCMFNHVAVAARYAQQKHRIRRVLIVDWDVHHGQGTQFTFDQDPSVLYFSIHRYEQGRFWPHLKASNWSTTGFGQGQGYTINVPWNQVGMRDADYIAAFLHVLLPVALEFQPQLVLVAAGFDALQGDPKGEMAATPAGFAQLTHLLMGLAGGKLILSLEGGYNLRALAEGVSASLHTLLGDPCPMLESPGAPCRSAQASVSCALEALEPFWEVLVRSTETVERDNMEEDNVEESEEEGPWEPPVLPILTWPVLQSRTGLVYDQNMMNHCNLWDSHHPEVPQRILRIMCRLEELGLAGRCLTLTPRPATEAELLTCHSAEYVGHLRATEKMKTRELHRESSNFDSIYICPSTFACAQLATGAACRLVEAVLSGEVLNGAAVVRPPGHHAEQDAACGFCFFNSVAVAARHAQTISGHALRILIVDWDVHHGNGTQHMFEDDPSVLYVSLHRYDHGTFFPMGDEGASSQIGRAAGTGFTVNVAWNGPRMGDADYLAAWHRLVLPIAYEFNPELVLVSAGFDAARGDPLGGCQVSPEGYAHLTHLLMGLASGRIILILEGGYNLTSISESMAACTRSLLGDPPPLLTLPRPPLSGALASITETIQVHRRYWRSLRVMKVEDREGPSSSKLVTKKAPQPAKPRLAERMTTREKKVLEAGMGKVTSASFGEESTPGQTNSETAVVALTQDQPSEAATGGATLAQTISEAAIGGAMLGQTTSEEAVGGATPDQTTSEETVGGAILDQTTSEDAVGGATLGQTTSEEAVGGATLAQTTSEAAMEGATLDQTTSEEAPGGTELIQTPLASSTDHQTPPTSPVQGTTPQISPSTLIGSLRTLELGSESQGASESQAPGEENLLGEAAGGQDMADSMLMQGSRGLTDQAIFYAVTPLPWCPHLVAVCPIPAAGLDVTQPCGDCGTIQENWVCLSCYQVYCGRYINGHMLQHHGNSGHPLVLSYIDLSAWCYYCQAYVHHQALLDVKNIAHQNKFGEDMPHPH
The experiment in a line: Inhibition of human recombinant HDAC6 expressed in baculovirus infected insect cells using [RHKK(Ac)] fluorogenic substrate.

For a further experiment, the system named is A 172. The experiment is described as follows: Induction of cell cycle arrest in human A 172 cells assessed as sub-G1 population upto 10 uM after 2 days by flow cytometry/PI staining assay. It is filed as functional, cell-based. Particulars: dose microM <=10, time 2.0 day.

In the case of `CC12CC3CC(C)(C1)CC(NCc1ccc(NC(=O)CCCCCCC(=O)NO)cc1)(C3)C2`, the half-inhibitory concentration (IC50) in experiment [1] was found to be 5.42 nM. Further, the outcome in the experiment on A 172 was Active.
